The values that follow come from patent publication US7420090B2 (priority 2002, dated 2008).

The test has as its system Pyrenophora teres. The class given is in vivo. To be noted: 200 ppm.

On to `CCC(Oc1cc(Cl)cc(Cl)c1)C(=O)NC(C)(C)C#CCCCOC` (stereo not shown) [4(57), 2-(3,5-dichlorophenoxy)-N-(1-methoxy-6-methylhept-4-yn-6-yl) butyramide], for which the “control of fungal infection (preventive fungicidal activity)” value is given as “more than 60%”.
